Assays:
[1] = Toxic level was evaluated; format: ADME
Human alphaherpesvirus 2 [2] = assay: In vitro antiviral activity was tested against, herpes simplex type 2 virus (HSV-2); format: functional; conditions: read-out: ED50 (the source's name)
Human respirovirus 3 [3] = assay: In vitro antiviral activity was tested against, parainfluenza type 3 (Para 3) virus; format: functional; conditions: read-out: ED50 (the source's name)
Vaccinia virus [4] = assay: In vitro antiviral activity was tested against, vaccinia virus (VV); format: functional; conditions: Orthopoxvirus vaccinia; read-out: ED50 (the source's name)
Measles morbillivirus [5] = assay: In vitro antiviral activity was tested against, measles virus; format: functional; conditions: read-out: ED50 (the source's name)
L1210 = assay: In vitro inhibitory effect was tested for cytostatic activity on the growth of murine leukemic L1210 cell lines; format: functional; conditions: Mus musculus, read-out: ID50 (the source's name)
P388 = assay: In vitro inhibitory effect was tested for cytostatic activity on the growth of lymphoid neoplasm P388 leukemic cell lines; format: functional; conditions: Mus musculus, read-out: ID50 (the source's name)
[6] = Toxic level was evaluated; None; format: ADME
Human alphaherpesvirus 2 [7] = assay: In vitro antiviral activity was tested against herpes simplex type 2 virus (HSV-2); format: functional; conditions: read-out: ED50 (the source's name)
Measles morbillivirus [8] = assay: In vitro antiviral activity was tested against measles virus; format: functional; conditions: read-out: ED50 (the source's name)
Vaccinia virus [9] = assay: In vitro antiviral activity was tested against vaccinia virus (VV); format: functional; conditions: Orthopoxvirus vaccinia; read-out: ED50 (the source's name)
Human respirovirus 3 [10] = assay: In vitro antiviral activity was tested against, parainfluenza type 3 (Para 3) virus; conditions: read-out: ED50 (the source's name)
[11] = Toxic level was evaluated; b=Too insoluble to test; format: ADME
Human alphaherpesvirus 2 [12] = assay: In vitro antiviral activity was tested against, herpes simplex type 2 virus (HSV-2); b=Too insoluble to test; format: functional, organism-based
Measles morbillivirus [13] = assay: In vitro antiviral activity was tested against, measles virus; b=Too insoluble to test; format: functional, organism-based
Human respirovirus 3 [14] = assay: In vitro antiviral activity was tested against, parainfluenza type 3 (Para 3) virus; b=Too insoluble to test; format: functional, organism-based
Vaccinia virus [15] = assay: In vitro antiviral activity was tested against, vaccinia virus (VV); b=Too insoluble to test; format: functional, organism-based; conditions: Orthopoxvirus vaccinia

Nc1ncnc2c1cc(Cl)n2[C@H]1C[C@H](O)[C@@H](CO)O1
Toxic level [1]: 1.6 mM | EC50 (Human alphaherpesvirus 2 [2]): 1100 µM | EC50 (Human respirovirus 3 [3]): 1600 µM | EC50 (Vaccinia virus [4]): 330 µM | EC50 (Measles morbillivirus [5]): 360 µM

Cc1nc(N)c2ccn([C@H]3C[C@H](O)[C@@H](CO)O3)c2n1
Toxic level [1]: 1.6 mM | EC50 (Human alphaherpesvirus 2 [2]): 1600 µM | EC50 (Human respirovirus 3 [3]): > 5000 µM | EC50 (Vaccinia virus [4]): 3100 µM | EC50 (Measles morbillivirus [5]): 920 µM

Cc1cc2c(N)ncnc2n1[C@H]1C[C@H](O)[C@@H](CO)O1
Toxic level [1]: 5 mM | EC50 (Human alphaherpesvirus 2 [2]): 2100 µM | EC50 (Human respirovirus 3 [3]): 500 µM | EC50 (Vaccinia virus [4]): 1000 µM | EC50 (Measles morbillivirus [5]): 500 µM

Nc1nc(Cl)nc2c1ncn2[C@H]1C[C@H](O)[C@@H](CO)O1 [CLADRIBINE]
Toxic level [1]: 0.005 mM | EC50 (Human alphaherpesvirus 2 [2]): 5 µM | IC50 (L1210): 0.026 µM | IC50 (P388): 0.032 µM | EC50 (Human respirovirus 3 [3]): > 500 µM | EC50 (Vaccinia virus [4]): 5 µM | EC50 (Measles morbillivirus [5]): > 500 µM

Cc1nc(N)c2cc(Cl)n([C@H]3C[C@H](O)[C@@H](CO)O3)c2n1
Toxic level [1]: 0.5 mM | EC50 (Human alphaherpesvirus 2 [2]): 500 µM | EC50 (Human respirovirus 3 [3]): > 1600 µM | EC50 (Vaccinia virus [4]): 840 µM | EC50 (Measles morbillivirus [5]): 360 µM

OC[C@H]1O[C@@H](n2ccc3cncnc32)C[C@@H]1O
Toxic level [1]: 5 mM | EC50 (Human alphaherpesvirus 2 [2]): 1400 µM | EC50 (Human respirovirus 3 [3]): > 5000 µM | EC50 (Vaccinia virus [4]): > 5000 µM | EC50 (Measles morbillivirus [5]): 250 µM

CSc1nc(N)c2cc(Cl)n([C@H]3C[C@H](O)[C@@H](CO)O3)c2n1
Toxic level [1]: 0.5 mM | EC50 (Human alphaherpesvirus 2 [2]): 580 µM | EC50 (Human respirovirus 3 [3]): 340 µM | EC50 (Vaccinia virus [4]): > 500 µM | EC50 (Measles morbillivirus [5]): 100 µM

NC(=O)c1ncn([C@@H]2O[C@H](CO)[C@@H](O)[C@H]2O)n1 [RIBAVIRIN]
Toxic level [6]: Non-toxic | EC50 (Human alphaherpesvirus 2 [2]): 190 µM | EC50 (Human respirovirus 3 [3]): 160 µM | EC50 (Vaccinia virus [4]): 85 µM | EC50 (Measles morbillivirus [5]): 30 µM

Cc1cc2cncnc2n1[C@H]1C[C@H](O)[C@@H](CO)O1
Toxic level [1]: 5 mM | EC50 (Human alphaherpesvirus 2 [7]): 74 µM | EC50 (Measles morbillivirus [8]): 300 µM | EC50 (Vaccinia virus [9]): 1000 µM | EC50 (Human respirovirus 3 [10]): 1100 µM

CSc1nc(Cl)c2cc(C)n([C@H]3C[C@H](O)[C@@H](CO)O3)c2n1
Toxic level [11]: Too insoluble | ED50 (Human alphaherpesvirus 2 [12]): Too insoluble | ED50 (Measles morbillivirus [13]): Too insoluble | ED50 (Human respirovirus 3 [14]): Too insoluble | ED50 (Vaccinia virus [15]): Too insoluble

Nc1ncnc2c1ccn2[C@H]1C[C@H](O)[C@@H](CO)O1 [2'-Deoxytubercidin]
Toxic level [1]: 1.6 mM | EC50 (Human alphaherpesvirus 2 [2]): 50 µM | IC50 (L1210): 80 µM | IC50 (P388): 49 µM | EC50 (Human respirovirus 3 [3]): 660 µM | EC50 (Vaccinia virus [4]): 160 µM | EC50 (Measles morbillivirus [5]): 210 µM

CSc1nc(N)c2cc(C)n([C@H]3C[C@H](O)[C@@H](CO)O3)c2n1
Toxic level [1]: 1.6 mM | EC50 (Human alphaherpesvirus 2 [2]): 1300 µM | EC50 (Human respirovirus 3 [3]): > 5000 µM | EC50 (Vaccinia virus [4]): 1000 µM | EC50 (Measles morbillivirus [5]): 250 µM

OC[C@H]1O[C@@H](n2ccc3c(S)ncnc32)C[C@@H]1O
Toxic level [1]: 5 mM | EC50 (Human alphaherpesvirus 2 [2]): 160 µM | EC50 (Human respirovirus 3 [3]): > 5000 µM | EC50 (Vaccinia virus [4]): 1100 µM | EC50 (Measles morbillivirus [5]): 27 µM

CSc1ncc2cc(C)n([C@H]3C[C@H](O)[C@@H](CO)O3)c2n1
Toxic level [1]: > 5 mM | EC50 (Human alphaherpesvirus 2 [2]): 2900 µM | EC50 (Human respirovirus 3 [3]): 1100 µM | EC50 (Vaccinia virus [4]): 840 µM | EC50 (Measles morbillivirus [5]): 95 µM

Nc1nc(Cl)nc2c1ccn2[C@H]1C[C@H](O)[C@@H](CO)O1
Toxic level [1]: 0.5 mM | EC50 (Human alphaherpesvirus 2 [2]): > 5000 µM | EC50 (Human respirovirus 3 [3]): > 5000 µM | EC50 (Vaccinia virus [4]): 1100 µM | EC50 (Measles morbillivirus [5]): > 5000 µM

OC[C@H]1O[C@@H](n2ccc3c(Cl)ncnc32)C[C@@H]1O
Toxic level [1]: 1.6 mM | EC50 (Human alphaherpesvirus 2 [2]): 650 µM | IC50 (L1210): 59 µM | IC50 (P388): 73 µM | EC50 (Human respirovirus 3 [3]): 960 µM | EC50 (Vaccinia virus [4]): > 5000 µM | EC50 (Measles morbillivirus [5]): 89 µM
